Measured values: patent US7629332B2, “Nitrophenyl mustard and nitrophenylaziridine alcohols and their corresponding phosphates and their use as targeted cytotoxic agents” (Auckland Uniservices Limited, priority 2003, dated 2009)
“Also recorded” adds a separate entry of the source.

Assays:
[1] = tested on: WiDr (NTR+ve); assay: Cell proliferation (sulphorhodamine B) IC50, NTR-transfected WiDr human colon cells; format: cell-based; details: for WiDr WT:NTR IC50 Ratio: 4 h, sensitivity ratio for NTR expression; for IC50: WiDr, 4 h drug exposure, growth 5 further days
[2] = tested on: A549 (P450R+ve); assay: Cell proliferation (sulphorhodamine B) IC50, P450R-transfected A549 human lung cells, anoxia vs 20% O2; format: cell-based; details: for A549 (P450R+ve) 20% O2/anoxia IC50 Ratio: 4 h, sensitivity ratio for hypoxia; for IC50: A549, 4 h drug exposure under 0% oxygen
[3] = tested on: WiDr human colon carcinoma xenografts (90% NTR-ve and 10% NTR+ve); assay: WiDr in vivo growth delay assay, mixed WiDr WT / WiDr NTR xenografts; details: single dose at MTD (750 μmol/kg), xenografts treated at 300 mm3
Excerpt: FIG. 2a depicts in vivo activity of compound IIb-7 and its corresponding phosphate pre-prodrug, Ib-7P, against human colon carcinoma xenografts grown by inoculating mixtures of 90% NTR−ve and 10% NTR+ve Wi Dr cells;
FIG. 2b are plots of % animals survival versus time (days), in which open circles denote wild-type WiDR human colon carcinoma xenografts, and filled circles denote tumours containing WiDr cells transfected with the E. coli NTR gene;
In the WiDr in vivo growth delay assay, xenografts containing mixtures of WiDr^WT and WiDr^NTR cells are grown to 300 mm^3 and treated with a single dose of prodrug at its MTD. Tumour growth is monitored over time and animals are euthanased when mean tumour volume >1600 mm^3. Data is presented as time to death.

[4] = in vivo; details: mouse
[5] = tested on: SiHa human tumour xenografts; assay: SiHa xenograft excision / clonogenic assay, with or without 15 Gy radiation; format: in vivo; details: for Activity against hypoxic cells: 20% of respective MTDs, after radiation
[6] = tested on: Rif-1 tumour; assay: In vivo excision assay with the Rif-1 tumour (15 Gy)
Procedure: FIG. 1b depicts an excision assay method: 300-500 mg Rif-1 xenograft→ 15 Gy→ Single prodrug dose @ MTD→ 18 hr→ excision→ disaggregate→ plate 10^2-10^5 cells→ 12 days→ colonies counted;
This employs an in vivo excision assay with the Rif-1 tumour, where the oxic tumour cells are sterilised using 15 Gy of radiation, and the cytotoxicity of an agent against the remaining hypoxic cells can be quantitated. […] Thus Ib-7P acts as a hypoxia-selective cytotoxin in vivo.

[7] = 75% of MTD, single i.p. dose, no radiation, relative to vehicle controls, excision 18 h

Row | SMILES | melting point [°C] | WiDr WT:NTR IC50 Ratio [1] | IC50 [1] [µM] | A549 (P450R+ve) 20% O2/anoxia IC50 Ratio [2] | IC50 [2] [µM] | further results
1 | O=C(NCCCOP(=O)(O)O)c1cc(N(CCCl)CCCl)c([N+](=O)[O-])cc1[N+](=O)[O-] | 195 to 200 | – | – | – | – | –
2 | CC(Br)CN(CC(C)Br)c1c(C(=O)NCCOP(=O)(O)O)cc([N+](=O)[O-])cc1[N+](=O)[O-] (stereo not drawn) | 157 to 161 | – | – | – | – | –
3 | CS(=O)(=O)c1cc([N+](=O)[O-])c(C(=O)NCCO)cc1N(CCBr)CCBr [IIa-7s, 5-[Bis(2-Bromoethyl)Amino]-N-(2-hydroxyethyl)-4-(Methylsulfonyl)-2-Nitrobenzamide] | 126 to 127 | 35 | 9.3 | 109 | 2.1 | –
4 | O=C(NCCCCO)c1cc(N(CCBr)CCBr)c([N+](=O)[O-])cc1[N+](=O)[O-] [IIa-9, N-(4-Hydroxybutyl)-5-[Bis(2-Bromoethyl)Amino]-2,4-Dinitrobenzamide] | 123 to 124 | 58 | 6.4 | 9.4 | 22 | –
5 | O=C(NCCCCCCO)c1cc([N+](=O)[O-])cc([N+](=O)[O-])c1N1CC1 [IIb-1, 2-(Aziridin-1-yl)-N-(6-Hydroxyhexyl)-3,5-Dinitrobenzamide] | 189 to 192 | 2 | 61 | <1.3 | 384 | –
6 | O=C(NCCO)c1cc([N+](=O)[O-])cc([N+](=O)[O-])c1N(CCCl)CCCl [IIb-2, 2-[Bis(2-Chloroethyl)Amino]-N-(2-Hydroxyethyl)-3,5-Dinitrobenzamide] | 109 to 111 | 47 | 11.8 | 20 | 18 | –
7 | O=C(NCCCO)c1cc([N+](=O)[O-])cc([N+](=O)[O-])c1N(CCCl)CCCl [IIb-3, 2-[Bis(2-Chloroethyl)Amino]-N-(3-Hydroxypropyl)-3,5-Dinitrobenzamide] | 89 to 91 | 59 | 13.6 | 9 | 30 | –
8 | O=C(NCCO)c1cc([N+](=O)[O-])cc([N+](=O)[O-])c1N(CCBr)CCBr [IIb-7, 2-[Bis(2-Bromoethyl)Amino]-N-(2-Hydroxyethyl)-3,5-Dinitrobenzamide] | – | 61 | 0.3 | 56 | 0.8 | over-all survival [3]: 6%; time to first treatment failure [3]: 17 days; MTD [4]: 1000 µmol/kg
9 | CC(Br)CN(CC(C)Br)c1c(C(=O)NCCO)cc([N+](=O)[O-])cc1[N+](=O)[O-] (stereo not drawn) [IIb-7a, 2-[Bis(2-Bromopropyl)Amino]-N-(2-Hydroxyethyl)-3,5-Dinitrobenzamide] | 127 to 130 | 27 | 0.5 | 5.3 | 1 | –
10 | O=C(NCCCO)c1cc([N+](=O)[O-])cc([N+](=O)[O-])c1N(CCBr)CCBr [IIb-8, 2-[Bis(2-Bromoethyl)Amino]-N-(3-Hydroxypropyl)-3,5-Dinitrobenzamide] | 89 to 94 | 13 | 0.4 | 24 | 1.1 | –
11 | O=C(NCCO)c1cc([N+](=O)[O-])cc([N+](=O)[O-])c1N(CCI)CCI [IIb-14, 2-[Bis(2-Iodoethyl)Amino]-N-(2-Hydroxyethyl)-3,5-Dinitrobenzamide] | 129 to 131 | 12 | 0.8 | 27 | 1 | –
12 | O=C(NCCOP(=O)(O)O)c1cc([N+](=O)[O-])cc([N+](=O)[O-])c1N(CCBr)CCBr [Ib-7P, 2-[[2-[Bis(2-Bromoethyl)Amino]-3,5-Dinitrobenzoyl]Amino]Ethyl Dihydrogen Phosphate] | – | – | – | – | – | Log kill, cmpd only, Mean ± sem [5, 7]: 1.20 ± 0.07; Activity against hypoxic cells, Rif-1 excision assay ([6]; single dose at MTD after 15 Gy): exceed that of its parent alcohol (IIb-7); also recorded: more active against hypoxic cells than the reference hypoxic cytotoxin tirapazamine; Activity against oxic tumour cells, Rif-1 excision assay ([6]; single dose at MTD without radiation): significant; over-all survival [3]: 40%; time to first treatment failure [3]: 77 days; MTD ([4]; CD-1 nude, ip): 750 µmol/kg; MTD [4]: 750 µmol/kg
13 | O=C(NCCOP(=O)(O)O)c1cc([N+](=O)[O-])cc([N+](=O)[O-])c1N(CCI)CCI [Ib-14P, 2-[[2-[Bis(2-Iodoethyl)Amino]-3,5-Dinitrobenzoyl]Amino]Ethyl Dihydrogen Phosphate] | – | – | – | – | – | Log kill, cmpd only, Mean ± sem [5, 7]: 0.92 ± 0.06; MTD ([4]; CD-1 nude, ip): 562 µmol/kg
14 | N[C@@H](Cc1ccc(N(CCCl)CCCl)cc1)C(=O)O [Melphalan, reference compound] | – | – | – | – | – | Activity against hypoxic cells [5]: lacked activity; MTD ([4]; CD-1 nude, ip): 42.2 µmol/kg
15 | Nc1n[n+]([O-])c2ccccc2[n+]1[O-] [Tirapazamine, reference compound] | – | – | – | – | – | Activity against hypoxic cells [5]: lacked activity; Log kill, cmpd only, Mean ± sem ([5]; in vivo, ip): −0.02 ± 0.01; MTD ([4]; CD-1 nude, ip): 316 µmol/kg
